Where “and” joins values, the source holds several entries; their conditions need not be identical. Equal entries are not always repeated. Inconclusive results and toxic doses are left out.
System: BDF1 mice, P388 leukemia ip, median survival T/C
Assay: NCI In Vivo Anticancer Drug Screen. Data for tumor model P388 Leukemia (intraperitoneal) in B6D2F1 (BDF1) mice
Conditions: endpoint: median survival time, higher = longer survival
How it was run: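 Mice carrying the transplantable tumour receive compound or vehicle. Survival is followed in each arm, and the treated measure is divided by the vehicle measure.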

[1] = dose: 50.0 mg/kg/injection, schedule: Q01DX009 (ip), vehicle: saline with Tween-80
[2] = dose: 100.0 mg/kg/injection, schedule: Q01DX009 (ip), vehicle: saline with Tween-80
[3] = dose: 200.0 mg/kg/injection, schedule: Q01DX009 (ip), vehicle: saline with Tween-80
[4] = dose: 12.5 mg/kg/injection, schedule: Q01DX009 (ip), vehicle: saline with Tween-80
[5] = dose: 25.0 mg/kg/injection, schedule: Q01DX009 (ip), vehicle: saline with Tween-80
[6] = dose: 25.0 mg/kg/injection, schedule: Q04DX003 (ip), vehicle: saline with Tween-80
[7] = dose: 50.0 mg/kg/injection, schedule: Q01DX009 (ip), vehicle: saline
[8] = dose: 100.0 mg/kg/injection, schedule: Q04DX003 (ip), vehicle: saline with Tween-80
[9] = dose: 200.0 mg/kg/injection, schedule: Q04DX003 (ip), vehicle: saline with Tween-80
[10] = dose: 100.0 mg/kg/injection, schedule: Q01DX009 (ip), vehicle: saline
[11] = dose: 100.0 mg/kg/injection, schedule: Q01DX009 (ip), vehicle: Klucel (hydroxypropylcellulose) (HPC)
[12] = dose: 200.0 mg/kg/injection, schedule: Q01DX009 (ip), vehicle: Klucel (hydroxypropylcellulose) (HPC)

Q: How did the T/C [1] turn out when `Clc1ccccc1-c1nc(-c2ccncc2)no1` was run?
A: 89 % of control

Q: What about the T/C [2] of the same molecule?
A: 93 % of control

Q: What about the T/C [3] of the same molecule?
A: 100 % of control

Q: For `O=[N+]([O-])c1cccc2c[n+](Cc3ccc(Br)cc3)ccc12`, which T/C [4] is on record?
A: 123 % of control

Q: Which results are given for `O=c1nc[nH]c(=O)[nH]1`?
A: T/C [5]: 97 % of control; T/C [1]: 99 % of control; T/C [2]: 97 % of control; T/C [3]: 104 % of control

Q: Which results are given for `CC1=C(/C=C/C(C)=C/C=C/C(C)=C/C(=O)O)C(C)(C)CCC1`?
A: T/C (dose: 6.25 mg/kg/injection, schedule: Q01DX009 (ip), vehicle: saline with Tween-80): 95 % of control; T/C [4]: 104 % of control; T/C [5]: 104 % of control

Q: For `CC1CCC(C)N1P(=O)(N1CC1)N1CC1` (stereo unspecified), which T/C (dose: 16.5 mg/kg/injection, schedule: Q04DX003 (ip), vehicle: saline with Tween-80) is on record?
A: 168 % of control and 183 % of control

Q: And the T/C [6]?
A: 120 % of control and 218 % of control

Q: With `CCNNC(=O)[C@@H]1[C@H](c2cc(OC)c(OC)c(OC)c2)c2cc3c(cc2[C@H](O)[C@H]1CO)OCO3` as the molecule, how does the T/C (dose: 12.5 mg/kg/injection, schedule: Q01DX009 (ip), vehicle: saline) read?
A: 109 % of control

Q: And the T/C (dose: 25.0 mg/kg/injection, schedule: Q01DX009 (ip), vehicle: saline)?
A: 100 % of control

Q: And the T/C [1]?
A: 116 % of control

Q: And the T/C [7]?
A: 122 % of control

Q: What about the T/C [2] of the same molecule?
A: 90 % of control

Q: And the T/C [8]?
A: 108 % of control

Q: What about the T/C [3] of the same molecule?
A: 90 % of control

Q: And the T/C [9]?
A: 104 % of control

Q: Which results are given for `CCCCN(C(=O)C(F)(F)F)C(C)(C)C(SSSC(c1ccc(Cl)cc1)C(C)(C)N(CCCC)C(=O)C(F)(F)F)c1ccc(Cl)cc1` (stereo unspecified)?
A: T/C [2]: 100 % of control; T/C [8]: 100 % of control; T/C [3]: 100 % of control; T/C [9]: 100 % of control; T/C (dose: 400.0 mg/kg/injection, schedule: Q01DX009 (ip), vehicle: saline with Tween-80): 100 % of control; T/C (dose: 400.0 mg/kg/injection, schedule: Q04DX003 (ip), vehicle: saline with Tween-80): 118 % of control

Q: How did the T/C (dose: 50.0 mg/kg/injection, schedule: Q01DX005 (ip), vehicle: saline) turn out when `CC(OC1C(N)C(O)OC(CO)C1O)C(=O)O` (stereo unspecified) was run?
A: 103 % of control

Q: What about the T/C (dose: 100.0 mg/kg/injection, schedule: Q01DX005 (ip), vehicle: saline) of the same molecule?
A: 109 % of control

Q: What about the T/C (dose: 200.0 mg/kg/injection, schedule: Q01DX005 (ip), vehicle: saline) of the same molecule?
A: 107 % of control

Q: How did the T/C (dose: 100.0 mg/kg/injection, schedule: Q01DX009 (ip), vehicle: steriod suspending solution) turn out when `CC(C)(CC(=O)O)CC(=O)OCC(=O)[C@@]1(O)CC[C@H]2[C@@H]3CCC4=CC(=O)C=C[C@]4(C)[C@H]3[C@@H](O)C[C@@]21C` was run?
A: 100 % of control

Q: What about the T/C (dose: 100.0 mg/kg/injection, schedule: Q01DX009 (sc), vehicle: steriod suspending solution) of the same molecule?
A: 120 % of control

Q: And the T/C (dose: 100.0 mg/kg/injection, schedule: Q04DX003 (sc), vehicle: steriod suspending solution)?
A: 108 % of control

Q: And the T/C (dose: 200.0 mg/kg/injection, schedule: Q01DX009 (ip), vehicle: steriod suspending solution)?
A: 90 % of control

Q: And the T/C (dose: 200.0 mg/kg/injection, schedule: Q01DX009 (sc), vehicle: steriod suspending solution)?
A: 120 % of control and 122 % of control

Q: What about the T/C (dose: 200.0 mg/kg/injection, schedule: Q04DX003 (sc), vehicle: steriod suspending solution) of the same molecule?
A: 100 % of control

Q: What about the T/C (dose: 400.0 mg/kg/injection, schedule: Q01DX009 (ip), vehicle: steriod suspending solution) of the same molecule?
A: 90 % of control

Q: What about the T/C (dose: 400.0 mg/kg/injection, schedule: Q01DX009 (sc), vehicle: steriod suspending solution) of the same molecule?
A: 110 % of control

Q: And the T/C (dose: 400.0 mg/kg/injection, schedule: Q04DX003 (sc), vehicle: steriod suspending solution)?
A: 104 % of control

Q: What does the source list for `COc1cc(NS(C)(=O)=O)ccc1Nc1c2ccc([N+](=O)[O-])cc2nc2c(C)cccc12`?
A: T/C (dose: 0.1 mg/kg/injection, schedule: Q04DX003 (ip), vehicle: saline with Tween-80): 112 % of control; T/C (dose: 0.2 mg/kg/injection, schedule: Q04DX003 (ip), vehicle: saline with Tween-80): 120 % of control; T/C (dose: 0.86 mg/kg/injection, schedule: Q04DX003 (ip), vehicle: saline with Tween-80): 200 % of control; T/C (dose: 1.3 mg/kg/injection, schedule: Q04DX003 (ip), vehicle: saline with Tween-80): 165 % of control; T/C (dose: 2.0 mg/kg/injection, schedule: Q04DX003 (ip), vehicle: saline with Tween-80): 184 % of control; T/C (dose: 3.0 mg/kg/injection, schedule: Q04DX003 (ip), vehicle: saline with Tween-80): 230 % of control and 204 % of control; T/C (dose: 5.0 mg/kg/injection, schedule: Q04DX003 (ip), vehicle: saline with Tween-80): 241 % of control; T/C (dose: 8.0 mg/kg/injection, schedule: Q04DX003 (ip), vehicle: saline with Tween-80): 230 % of control and 241 % of control; T/C (dose: 12.0 mg/kg/injection, schedule: Q04DX003 (ip), vehicle: saline with Tween-80): 230 % of control; T/C (dose: 18.0 mg/kg/injection, schedule: Q04DX003 (ip), vehicle: saline with Tween-80): 123 % of control

Q: `OCCNc1ccc(I)cc1` was tested. Which T/C (dose: 100.0 mg/kg/injection, schedule: Q04DX003 (ip), vehicle: other) did it give?
A: 113 % of control

Q: And the T/C (dose: 200.0 mg/kg/injection, schedule: Q04DX003 (ip), vehicle: other)?
A: 122 % of control

Q: What about the T/C (dose: 400.0 mg/kg/injection, schedule: Q04DX003 (ip), vehicle: other) of the same molecule?
A: 104 % of control

Q: Which results are given for `Nc1ccc2c(-c3ccccc3)cc(NCCCN3CCOCC3)nc2n1`?
A: T/C (dose: 100.0 mg/kg/injection, schedule: Q04DX003 (ip), vehicle: saline): 104 % of control; T/C (dose: 200.0 mg/kg/injection, schedule: Q04DX003 (ip), vehicle: saline): 100 % of control

Q: `N#CO` was tested. Which T/C (dose: 33.0 mg/kg/injection, schedule: Q01DX009 (ip), vehicle: saline) did it give?
A: 103 % of control (2×) and 113 % of control

Q: And the T/C (dose: 42.0 mg/kg/injection, schedule: Q01DX009 (ip), vehicle: saline)?
A: 109 % of control

Q: What about the T/C [7] of the same molecule?
A: 96 % of control and 122 % of control

Q: And the T/C (dose: 56.0 mg/kg/injection, schedule: Q01DX009 (ip), vehicle: saline)?
A: 90 % of control

Q: What about the T/C (dose: 75.0 mg/kg/injection, schedule: Q01DX009 (ip), vehicle: saline) of the same molecule?
A: 100 % of control and 121 % of control

Q: And the T/C [10]?
A: 109 % of control

Q: How did the T/C (dose: 40.0 mg/kg/injection, schedule: Q01DX001 (ip), vehicle: saline with Tween-80) turn out when `N#Cc1cc2c3c(c1)CCCN3CCC2` was run?
A: 100 % of control

Q: What about the T/C (dose: 80.0 mg/kg/injection, schedule: Q01DX001 (ip), vehicle: saline with Tween-80) of the same molecule?
A: 95 % of control

Q: What about the T/C (dose: 160.0 mg/kg/injection, schedule: Q01DX001 (ip), vehicle: saline with Tween-80) of the same molecule?
A: 109 % of control

Q: Which T/C (dose: 100.0 mg/kg/injection, schedule: Q01DX001 (ip), vehicle: Klucel (hydroxypropylcellulose) (HPC)) does the source give for `CC(C)CCCc1c[nH]c(=O)[nH]c1=O` here?
A: 90 % of control

Q: What about the T/C [11] of the same molecule?
A: 86 % of control

Q: And the T/C (dose: 200.0 mg/kg/injection, schedule: Q01DX001 (ip), vehicle: Klucel (hydroxypropylcellulose) (HPC))?
A: 90 % of control

Q: And the T/C [12]?
A: 86 % of control

Q: And the T/C (dose: 400.0 mg/kg/injection, schedule: Q01DX001 (ip), vehicle: Klucel (hydroxypropylcellulose) (HPC))?
A: 90 % of control

Q: And the T/C (dose: 400.0 mg/kg/injection, schedule: Q01DX009 (ip), vehicle: Klucel (hydroxypropylcellulose) (HPC))?
A: 91 % of control

Q: How did the T/C (dose: 6.6 mg/kg/injection, schedule: Q04DX003 (ip), vehicle: saline with Tween-80) turn out when `Cc1ccc(NC(=O)N(CCCl)N=O)cc1C` was run?
A: 159 % of control

Q: And the T/C (dose: 10.0 mg/kg/injection, schedule: Q04DX003 (ip), vehicle: saline with Tween-80)?
A: 209 % of control

Q: What about the T/C (dose: 15.0 mg/kg/injection, schedule: Q04DX003 (ip), vehicle: saline with Tween-80) of the same molecule?
A: 204 % of control

Q: Which results are given for `CCOC(=O)C1NC(=S)NCC1=O` (stereo unspecified)?
A: T/C [11]: 110 % of control; T/C [12]: 110 % of control

Q: For `N#CCC(N)=C(C#N)C#N`, which T/C (dose: 25.0 mg/kg/injection, schedule: Q01DX009 (ip), vehicle: Klucel (hydroxypropylcellulose) (HPC)) is on record?
A: 100 % of control

Q: And the T/C (dose: 25.0 mg/kg/injection, schedule: Q04DX003 (ip), vehicle: Klucel (hydroxypropylcellulose) (HPC))?
A: 95 % of control

Q: And the T/C (dose: 50.0 mg/kg/injection, schedule: Q01DX009 (ip), vehicle: Klucel (hydroxypropylcellulose) (HPC))?
A: 87 % of control

Q: What about the T/C (dose: 50.0 mg/kg/injection, schedule: Q04DX003 (ip), vehicle: Klucel (hydroxypropylcellulose) (HPC)) of the same molecule?
A: 104 % of control

Q: And the T/C [11]?
A: 95 % of control

Q: And the T/C (dose: 100.0 mg/kg/injection, schedule: Q04DX003 (ip), vehicle: Klucel (hydroxypropylcellulose) (HPC))?
A: 100 % of control and 104 % of control

Q: For `CS(=O)(=O)C(=Cc1ccccc1Cl)S(C)(=O)=O`, which T/C [10] is on record?
A: 104 % of control

Q: And the T/C (dose: 200.0 mg/kg/injection, schedule: Q01DX009 (ip), vehicle: saline)?
A: 118 % of control

Q: And the T/C (dose: 400.0 mg/kg/injection, schedule: Q01DX009 (ip), vehicle: saline)?
A: 121 % of control

Q: For `Cc1nc2c(NC(=O)CCl)nn(C)c2nc1C`, which T/C [6] is on record?
A: 105 % of control

Q: What about the T/C (dose: 50.0 mg/kg/injection, schedule: Q04DX003 (ip), vehicle: saline with Tween-80) of the same molecule?
A: 110 % of control

Q: And the T/C [8]?
A: 95 % of control

Reference: PubChem BioAssay AID328 (DTP/NCI, 2004)
